Data taken from the supplement of paper PMC10307832.

Legend:
Assay in all cases: relative viability (nuclei count vs DMSO), 5 days (fraction); higher = more cells survive
[1] = tested on: A-427
Outline: (§1)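 Five library-drug doses in √10 steps were combined with a fixed anchor-drug dose, or a single drug was given alone, by pin tool to lung cancer cell lines in 1536-well plates the day after seeding. Nuclei were stained and counted after 5 days. Relative viability is the nuclei count in treated wells over that in vehicle wells, taken as the median of duplicate plates.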

[2] = tested on: BEN
Outline: as §1

[3] = tested on: HARA
Outline: as §1

[4] = tested on: LCLC-97TM1
Outline: as §1

[5] = tested on: LOU-NH91
Outline: as §1

[6] = tested on: LU99A
Outline: as §1

[7] = tested on: LXF-289
Outline: as §1

[8] = tested on: NCI-H1395
Outline: as §1

[9] = tested on: NCI-H1563
Outline: as §1

[10] = tested on: NCI-H1666
Outline: as §1

[11] = tested on: NCI-H1755
Outline: as §1

[12] = tested on: NCI-H1793
Outline: as §1

[13] = tested on: NCI-H1915
Outline: as §1

[14] = tested on: NCI-H1944
Outline: as §1

[15] = tested on: NCI-H2023
Outline: as §1

[16] = tested on: NCI-H2126
Outline: as §1

[17] = tested on: NCI-H2170
Outline: as §1

[18] = tested on: NCI-H2342
Outline: as §1

[19] = tested on: NCI-H23
Outline: as §1

[20] = tested on: NCI-H322M
Outline: as §1

[21] = tested on: NCI-H441
Outline: as §1

[22] = tested on: NCI-H460
Outline: as §1

[23] = tested on: NCI-H650
Outline: as §1

[24] = tested on: PC-3 [JPC-3]
Outline: as §1

[25] = tested on: SK-LU-1
Outline: as §1

In the case of CCCCCCCCCCCC1=C(O)C(=O)C=C(O)C1=O [Embelin] + Cc1nc(Nc2ncc(C(=O)Nc3c(C)cccc3Cl)s2)cc(N2CCN(CCO)CC2)n1 [Dasatinib] (partner 0.075 µM), the relative viability ([1]; first compound 0.08 µM) is reported as 0.689, the relative viability ([1]; first compound 0.8 µM) is reported as 0.805 and the relative viability ([1]; first compound 2.53 µM) is reported as 0.689. The relative viability ([1]; first compound 8 µM) was 0.727, the relative viability ([2]; first compound 0.08 µM) was 0.355 and the relative viability ([2]; first compound 0.8 µM) was 0.359. The relative viability ([2]; first compound 2.53 µM) was 0.259, the relative viability ([2]; first compound 8 µM) was 0.362 and the relative viability ([3]; first compound 0.08 µM) was 0.25. For the same molecule, the relative viability ([3]; first compound 0.8 µM) was 0.329, the relative viability ([3]; first compound 2.53 µM) was 0.279 and the relative viability ([3]; first compound 8 µM) was 0.272. It also gave a relative viability ([4]; first compound 0.08 µM) of 1.05, a relative viability ([4]; first compound 0.8 µM) of 0.668 and a relative viability ([4]; first compound 2.53 µM) of 0.916. It also gave a relative viability ([4]; first compound 8 µM) of 0.912, a relative viability ([5]; first compound 0.08 µM) of 0.567 and a relative viability ([5]; first compound 0.8 µM) of 0.624. The relative viability ([5]; first compound 2.53 µM) was 0.561, the relative viability ([5]; first compound 8 µM) was 0.531 and the relative viability ([6]; first compound 0.08 µM) was 0.572. For the same molecule, the relative viability ([6]; first compound 0.8 µM) was 0.759, the relative viability ([6]; first compound 2.53 µM) was 0.643 and the relative viability ([6]; first compound 8 µM) was 0.515. For the same molecule, the relative viability ([7]; first compound 0.08 µM) was 0.212, the relative viability ([7]; first compound 0.8 µM) was 0.282 and the relative viability ([7]; first compound 2.53 µM) was 0.163. It also gave a relative viability ([7]; first compound 8 µM) of 0.222, a relative viability ([8]; first compound 0.08 µM) of 0.393 and a relative viability ([8]; first compound 0.8 µM) of 0.484. It also gave a relative viability ([8]; first compound 2.53 µM) of 0.404, a relative viability ([8]; first compound 8 µM) of 0.352 and a relative viability ([9]; first compound 0.08 µM) of 0.475. For the same molecule, the relative viability ([9]; first compound 0.8 µM) was 0.447, the relative viability ([9]; first compound 2.53 µM) was 0.405 and the relative viability ([9]; first compound 8 µM) was 0.387. The relative viability ([10]; first compound 0.08 µM) was 0.793, the relative viability ([10]; first compound 0.8 µM) was 0.88 and the relative viability ([10]; first compound 2.53 µM) was 0.839. For the same molecule, the relative viability ([10]; first compound 8 µM) was 0.852, the relative viability ([11]; first compound 0.08 µM) was 0.368 and the relative viability ([11]; first compound 0.8 µM) was 0.49. The relative viability ([11]; first compound 2.53 µM) was 0.379, the relative viability ([11]; first compound 8 µM) was 0.407 and the relative viability ([12]; first compound 0.08 µM) was 0.397. The relative viability ([12]; first compound 0.8 µM) was 0.432, the relative viability ([12]; first compound 2.53 µM) was 0.446 and the relative viability ([12]; first compound 8 µM) was 0.334. It also gave a relative viability ([13]; first compound 0.08 µM) of 0.309, a relative viability ([13]; first compound 0.8 µM) of 0.361 and a relative viability ([13]; first compound 2.53 µM) of 0.321. The relative viability ([13]; first compound 8 µM) was 0.335, the relative viability ([14]; first compound 0.08 µM) was 0.2 and the relative viability ([14]; first compound 0.8 µM) was 0.221. For the same molecule, the relative viability ([14]; first compound 2.53 µM) was 0.245, the relative viability ([14]; first compound 8 µM) was 0.195 and the relative viability ([15]; first compound 0.08 µM) was 0.565. The relative viability ([15]; first compound 0.8 µM) was 0.673, the relative viability ([15]; first compound 2.53 µM) was 0.611 and the relative viability ([15]; first compound 8 µM) was 0.556. For the same molecule, the relative viability ([16]; first compound 0.08 µM) was 0.615, the relative viability ([16]; first compound 0.8 µM) was 0.684 and the relative viability ([16]; first compound 2.53 µM) was 0.714. For the same molecule, the relative viability ([16]; first compound 8 µM) was 0.502, the relative viability ([17]; first compound 0.08 µM) was 0.649 and the relative viability ([17]; first compound 0.8 µM) was 0.806. For the same molecule, the relative viability ([17]; first compound 2.53 µM) was 0.694, the relative viability ([17]; first compound 8 µM) was 0.533 and the relative viability ([18]; first compound 0.08 µM) was 0.288. For the same molecule, the relative viability ([18]; first compound 0.8 µM) was 0.346, the relative viability ([18]; first compound 2.53 µM) was 0.326 and the relative viability ([18]; first compound 8 µM) was 0.342. It also gave a relative viability ([19]; first compound 0.08 µM) of 0.82, a relative viability ([19]; first compound 0.8 µM) of 0.755 and a relative viability ([19]; first compound 2.53 µM) of 1.08. For the same molecule, the relative viability ([19]; first compound 8 µM) was 0.612, the relative viability ([20]; first compound 0.08 µM) was 0.26 and the relative viability ([20]; first compound 0.8 µM) was 0.263. The relative viability ([20]; first compound 2.53 µM) was 0.261, the relative viability ([20]; first compound 8 µM) was 0.232 and the relative viability ([21]; first compound 0.08 µM) was 0.645. For the same molecule, the relative viability ([21]; first compound 0.8 µM) was 0.633, the relative viability ([21]; first compound 2.53 µM) was 0.686 and the relative viability ([21]; first compound 8 µM) was 0.838. The relative viability ([22]; first compound 0.08 µM) was 0.58, the relative viability ([22]; first compound 0.8 µM) was 0.57 and the relative viability ([22]; first compound 2.53 µM) was 0.571. For the same molecule, the relative viability ([22]; first compound 8 µM) was 0.416, the relative viability ([23]; first compound 0.08 µM) was 0.443 and the relative viability ([23]; first compound 0.8 µM) was 0.485. For the same molecule, the relative viability ([23]; first compound 2.53 µM) was 0.368, the relative viability ([23]; first compound 8 µM) was 0.383 and the relative viability ([24]; first compound 0.08 µM) was 1.02. For the same molecule, the relative viability ([24]; first compound 0.8 µM) was 1.05, the relative viability ([24]; first compound 2.53 µM) was 1.12 and the relative viability ([24]; first compound 8 µM) was 0.966. For the same molecule, the relative viability ([25]; first compound 0.08 µM) was 0.192, the relative viability ([25]; first compound 0.8 µM) was 0.191 and the relative viability ([25]; first compound 2.53 µM) was 0.199. The relative viability ([25]; first compound 8 µM) was 0.138.
